Data from patent US7608630B2, “Marasmius androsaceus L.es Fr extract, piperidone derivative, and their use for the preparation of hypertensives” (Hainan Yangpu New Special Pharmaceutical Co., Ltd., priority 2004, dated 2009).
“And” between values parts separate entries of the source, which are not always exact repeats. Equal entries are not always repeated.

How the values were obtained:
[1] = system: ileum smooth muscle of guinea pig; test: Effects on ileum smooth muscle of guinea pig (automatic rhythmic contraction of isolated ileum section)
Procedure: The section was clamped at its both ends with frog heart clips, and placed in a perfusion tank with the lower end being fixed at the bottom of the tank and the top end being connected by a thread to a tensile transducer of a two-way electrophysiolograph, so that the automatic rhythmic contraction of the ileum section was recorded. The Tai's nutrient solution in the tank was kept at a temperature of 35° C., into which pure […] was bubbled. […] The normal contraction curve of the ileum section was firstly recorded using isoprenaline as a positive control.

[2] = system: blood pressure of cats; test: Reduction of blood pressure of cat; type: in vivo; details: cats, 10 mg/kg o.s; for Diastolic pressure, Animal 1-4 individually / Systolic pressure, Animal 1-4 individually / Systolic pressure, Animal 3-4 individually: 10 mg/kg
Procedure: (§1) A spontaneously hypertensive rat (SHR) was anesthetized with 40 mg/ml pentobarbital, and fixed by its back on an experimental stand. The skin at its neck was cut open after removing hair, and thereafter the right common carotid artery was separated with its proximal end being clamped by a artery clamp and its axifugal end being ligated by a thread. A V-shape cut was made with scissors at the axifugal end, into which an arterial cannula filled with heparin physiological saline was inserted. The arterial cannula was connected with a blood pressure transducer, and then the blood pressure transducer was connected to a computer-controlled three-way physiological-pharmacological recorder. The right femoral vein of the rat was separated and intubated for the injection of a drug. When the blood pressure became stable (i.e., the blood pressure contraction curve became straight), the rat was administered by intravenous route.
Five cats of 2.5-3.2 kg were administered orally and intravenously respectively according to the method in Example 8, and then their systolic pressure and diastolic pressure were determined using normal cats non-administered as a control group.

[3] = system: blood pressure of SHR rat; test: Reduction of blood pressure of anesthetized SHR rat; type: in vivo, spontaneously hypertensive rat (SHR); details: SHR rat; for Systolic pressure / Diastolic pressure: 10 mg/kg intravenous; for reduction of systolic pressure and diastolic pressure: dosage range 10-200 mg/kg, intravenous
Procedure: as §1

[4] = system: aorta smooth muscle of rabbit; test: Effects on aorta of rabbit (contraction of isolated aorta section caused by adrenalin); parameters: species or system New Zealand rabbit
Procedure: A New Zealand rabbit was beheaded and unconscious. After thoracotomy, its thoracic aorta was quickly taken out, and quickly placed in and flushed with a pre-cooled LOCK's solution (which comprised of 1000 ml water, 9 g NaCl, 0.35 g KCl, 0.35 g MgSO4.7H2O, 0.16 g KH2PO4, and 1 g NaHCO3) to remove bloodiness. The connective tissue outside the blood vessel was carefully cut off, and an aorta section of 2-3 mm wide at an angle of 45° relative to the vessel was taken for use in the following test.
The aorta section of 2 cm long was clamped at its both ends with frog heart clips, and put in a thermostatic perfusion tank of 38° C. with the lower end being fixed at the bottom of the tank and the top end being connected by a thread to a tensile transducer of a two-way electrophysiolograph. Oxygen was bubbled to the solution in the perfusion tank, and the contraction force of the aorta section was recorded after balancing it in the solution for 80 min. During which, the LOCK's solution was changed once per 20 min. After adding 1.2×10^−6 mg/ml adrenalin to the solution, the contraction curve of the aorta section was recorded.

[5] = 10 min after administration (Table 9)
[6] = 20 min after administration (Table 9)
[7] = 30 min after administration (Table 9)
[8] = 40 min after administration (Table 9)
[9] = 50 min after administration (Table 9)
[10] = 60 min after administration (Table 9)
[11] = 90 min after administration (Table 9)
[12] = 120 min after administration (Table 9)
[13] = 150 min after administration (Table 9)
[14] = 180 min after administration (Table 9)
[15] = before administration (Table 9)

For CC1(C)CNCC(C)(C)C1O [Compound of formula Ib, 3,3,5,5-tetramethyl-4-piperidanol], the “Relaxation Time” value ([1]; concentration 1 × 10^−4 mg/ml) was 5 h, the “Time of taking effect” value ([1]; concentration 1 × 10^−4 mg/ml) was 3 min and the “inhibition of the automatic rhythmic contraction of the ileum section” value ([1]; different concentrations) was “could inhibit the automatic rhythmic contraction of the ileum section”. For the same compound, the “Average Diastolic pressure” value [2, 5] was 106.75 mmHg, the “Average Systolic pressure” value [2, 5] was 141.75 mmHg and the “Diastolic pressure, Animal 1-4 individually” value [2, 5] was 119 mmHg and 105 mmHg and 100 mmHg and 103 mmHg. For the same compound, the “Systolic pressure, Animal 1-4 individually” value [2, 5] was 136 mmHg and 139 mmHg and 145 mmHg and 147 mmHg, the “Average Diastolic pressure” value [2, 6] was 104.25 mmHg and the “Average Systolic pressure” value [2, 6] was 140 mmHg. For the same compound, the “Diastolic pressure, Animal 1-4 individually” value [2, 6] was 135 mmHg and 89 mmHg (2×) and 104 mmHg, the “Systolic pressure, Animal 1-4 individually” value [2, 6] was 146 mmHg and 125 mmHg and 153 mmHg and 136 mmHg and the “Average Diastolic pressure” value [2, 7] was 104.75 mmHg. For the same compound, the “Average Systolic pressure” value [2, 7] was 140.5 mmHg, the “Diastolic pressure, Animal 1-4 individually” value [2, 7] was 130 mmHg and 90 mmHg (2×) and 109 mmHg and the “Systolic pressure, Animal 1-4 individually” value [2, 7] was 146 mmHg and 126 mmHg and 154 mmHg and 136 mmHg. The “Average Diastolic pressure” value [2, 8] was 102.25 mmHg, the “Average Systolic pressure” value [2, 8] was 139 mmHg and the “Diastolic pressure, Animal 1-4 individually” value [2, 8] was 126 mmHg and 91 mmHg and 102 mmHg and 90 mmHg. For the same compound, the “Systolic pressure, Animal 1-4 individually” value [2, 8] was 140 mmHg and 126 mmHg and 154 mmHg and 136 mmHg, the “Average Diastolic pressure” value [2, 9] was 103 mmHg and the “Average Systolic pressure” value [2, 9] was 136.5 mmHg. The “Diastolic pressure, Animal 1-4 individually” value [2, 9] was 126 mmHg and 96 mmHg and 103 mmHg and 87 mmHg, the “Systolic pressure, Animal 1-4 individually” value [2, 9] was 136 mmHg and 130 mmHg (2×) and 150 mmHg and the “Average Diastolic pressure” value [2, 10] was 109 mmHg. The “Average Systolic pressure” value [2, 10] was 138 mmHg, the “Diastolic pressure, Animal 1-4 individually” value [2, 10] was 123 mmHg and 97 mmHg and 102 mmHg and 114 mmHg and the “Systolic pressure, Animal 1-4 individually” value [2, 10] was 140 mmHg and 122 mmHg and 152 mmHg and 138 mmHg. For the same compound, the “Average Diastolic pressure” value [2, 11] was 109.25 mmHg, the “Average Systolic pressure” value [2, 11] was 141.75 mmHg and the “Diastolic pressure, Animal 1-4 individually” value [2, 11] was 125 mmHg and 95 mmHg and 110 mmHg and 107 mmHg. The “Systolic pressure, Animal 1-4 individually” value [2, 11] was 135 mmHg and 130 mmHg and 156 mmHg and 146 mmHg, the “Average Diastolic pressure” value [2, 12] was 116.75 mmHg and the “Average Systolic pressure” value [2, 12] was 151.5 mmHg. For the same compound, the “Diastolic pressure, Animal 1-4 individually” value [2, 12] was 131 mmHg and 94 mmHg and 115 mmHg and 127 mmHg, the “Systolic pressure, Animal 1-4 individually” value [2, 12] was 146 mmHg and 131 mmHg and 165 mmHg and 164 mmHg and the “Average Diastolic pressure” value [2, 13] was 116.75 mmHg. For the same compound, the “Average Systolic pressure” value [2, 13] was 155.25 mmHg, the “Diastolic pressure, Animal 1-4 individually” value [2, 13] was 132 mmHg and 98 mmHg and 117 mmHg and 120 mmHg and the “Systolic pressure, Animal 1-4 individually” value [2, 13] was 145 mmHg and 139 mmHg and 166 mmHg and 171 mmHg. For the same compound, the “Average Diastolic pressure” value [2, 14] was 118.5 mmHg, the “Average Systolic pressure” value [2, 14] was 158.5 mmHg and the “Diastolic pressure, Animal 1-4 individually” value [2, 14] was 133 mmHg and 97 mmHg and 113 mmHg and 131 mmHg. For the same compound, the “Systolic pressure, Animal 1-4 individually” value [2, 14] was 152 mmHg and 142 mmHg and 160 mmHg and 180 mmHg, the “Systolic pressure, Animal 3-4 individually” value ([2]; 210 min after administration (Table 9)) was 156 mmHg and 186 mmHg and the “Average Systolic pressure” value ([2]; 210 min after administration (Table 9; two animals)) was 171 mmHg. The “Systolic pressure, Animal 3-4 individually” value ([2]; 240 min after administration (Table 9)) was 155 mmHg and 202 mmHg, the “Average Systolic pressure” value ([2]; 240 min after administration (Table 9; two animals)) was 178.5 mmHg and the “Average Diastolic pressure” value [2, 15] was 140 mmHg. For the same compound, the “Average Systolic pressure” value [2, 15] was 195.25 mmHg, the “Diastolic pressure, Animal 1-4 individually” value [2, 15] was 134 mmHg and 156 mmHg and 116 mmHg and 154 mmHg and the “Systolic pressure, Animal 1-4 individually” value [2, 15] was 150 mmHg and 209 mmHg and 185 mmHg and 237 mmHg. It also gave a Systolic pressure ([3]; 5 min after administration) of 140 ± 19 mm/Hg, a Diastolic pressure ([3]; 60 min after administration) of 88 ± 10 mm/Hg and a Systolic pressure ([3]; 60 min after administration) of 121 ± 15 mm/Hg. For the same compound, the Diastolic pressure ([3]; 120 min after administration) was 89 ± 8.9 mm/Hg, the Systolic pressure ([3]; 120 min after administration) was 126 ± 16 mm/Hg and the Diastolic pressure ([3]; 240 min after administration) was 107 ± 9.2 mm/Hg. The Systolic pressure ([3]; 240 min after administration) was 162 ± 11 mm/Hg, the Diastolic pressure ([3]; before administration) was 125 ± 17 mm/Hg and the Systolic pressure ([3]; before administration) was 178 ± 13 mm/Hg. The “reduction of systolic pressure and diastolic pressure” value [3] was “could obviously reduce the systolic pressure and diastolic pressure of SHR rat”.

Work on CC1(C)CNCC(C)(C)C1=O.Cl [3,3,5,5-tetramethyl-4-piperidone hydrochloride] yielded a Diastolic pressure ([3]; 5 min after administration) of 109 ± 13 mm/Hg, a Systolic pressure ([3]; 5 min after administration) of 139 ± 19 mm/Hg and a Diastolic pressure ([3]; 60 min after administration) of 89 ± 12 mm/Hg. The Systolic pressure ([3]; 60 min after administration) was 123 ± 11 mm/Hg, the Diastolic pressure ([3]; 120 min after administration) was 80 ± 23 mm/Hg and the Systolic pressure ([3]; 120 min after administration) was 129 ± 17 mm/Hg. For the same compound, the Diastolic pressure ([3]; 240 min after administration) was 112 ± 16 mm/Hg, the Systolic pressure ([3]; 240 min after administration) was 169 ± 14 mm/Hg and the Diastolic pressure ([3]; before administration) was 119 ± 15 mm/Hg. For the same compound, the Systolic pressure ([3]; before administration) was 170 ± 9.3 mm/Hg and the “reduction of systolic pressure and diastolic pressure” value [3] was “could obviously reduce the systolic pressure and diastolic pressure of SHR rat”.

CC(C)NCC(O)c1ccc(O)c(O)c1 (stereo not drawn) [Isoprenaline, reference compound] was tested, and the “Relaxation Time” value ([1]; concentration 5 × 10^−5 mg/ml) was 0.3 h, the “Time of taking effect” value ([1]; concentration 5 × 10^−5 mg/ml) was 16 min and the “time after flushing at which the inhibited contraction is resumed” value ([1]; concentration 5×10^−5 mg/ml, control) was 20 min. For the same compound, the “Time of taking effect” value ([4]; concentration 1.2 × 10^−6 mg/ml) was 16 min and the Contraction force ([4]; concentration 1.2 × 10^−6 mg/ml, relative to original adrenalin contraction) was 1.

With CCN1CC(C)(C)C(=O)C(C)(C)C1 [Compound of formula Ia, 1-ethyl-3,3,5,5-tetramethyl-4-piperidone] the “Time of taking effect” value ([4]; concentration 1 × 10^−4 mg/ml) was 3 min, the Contraction force ([4]; concentration 1 × 10^−4 mg/ml, 10 min, then adrenalin 1.2×10^−6 mg/ml, relative to original value) was 0.3 and the “reduction of the contraction of aorta section caused by adrenalin” value ([4]; concentration range 5×10^−3-1×10^−4 mg/ml) was “could obviously reduce the contraction of aorta section caused by adrenalin”. The “contraction force resumed by adrenalin, fraction of the original value” ([4]; sample 10 min, then adrenalin 1.2×10^−6 mg/ml, stated for the three samples together) was “½-⅓”.
